Read-outs that look alike come from different tables or passages of the source.
Key:
[1] = cited from earlier work
[2] = target: T1, 1,3-dicarbonyl-dioxygenase (Acinetobacter johnsonii, UniProt Q8GNT2); assay: Products of various substrates determined by HPLC (cleavage stoichiometry, partially purified enzyme); format: biochemical; conditions: substrate 4 mM, 25° C., one hour
Source text: The products of the enzyme reaction were identified directly from the reaction mixture by in situ ^1H-NMR-spectroscopy (Pokorny, D., L. Brecker, M. Pogorevc, H. Griengl, W. Steiner, T. Kappe, and D. W. Ribbons. 1999. Proton-Nuclear Magnetic Resonance Analyses of the Substrate Specificity of a β-Ketolase from Pseudomonas putida, Acetopyruvate Hydrolase. J. Bacteriol. 181: 5051-5059.). Therefore a 200 MHz narrow bore magnet (Varian Gemini™ 2000, Varian, Inc., Palo Alto, Calif.) and a 5 mm broadband probe head were used. The NMR tube was rotated at 20 rps. For a lock a D2O vortex capillary was added to avoid ^1H/D exchange reactions. The overwhelming water-signal was suppressed with a presaturation method (Guéron, M., P. Plateau and M. Decorps. 1991. Solvent signal suppression in NMR. Prog. NMR Spectrosc. 23: 135-209. Hore, J. P. 1989. Solvent suppression. p. 64. In N. J. Oppenheimer and J. T. James (eds.), Methods Enzymol. 176. Academic Press, Inc., San Diego.). The following parameters were adjusted for a ^1H-frequency of 200 MHz: presaturation-duration of 1.0 s, ^1H-pulse-angle of 90, an acquisition-time of 2.0 s and a relaxation delay of 1.5 s. 64 Scans were accumulated and after a zero filling to 32 k datapoints the free induction decay was Fourier transformed. The water signal (4.70 ppm) was used as a reference. For standard reaction analytics HPLC-measurements were performed (Hewlett-Packard, column: Aminex-HPX-87H, UV- and RI-detector, eluent Sulfuric acid 0.005 M).
The cleavage-stoichiometry of several non-symmetrical substrates was also investigated, in order to be able to determine the regiospecificity of the enzyme. This was done by conversion of the respective substrate with partially purified enzyme. Methylglyoxal and acetate formed were measured by HPLC. Remaining substrate was calculated.

[3] = target: T1, 1,3-dicarbonyl-dioxygenase; assay: Substrate spectrum / apparent kinetic constants of purified 1,3-dicarbonyl-dioxygenase (UV assay and oxygen electrode)
Description: (§1) The reaction rates were determined by using the microcomputer regression program provided with the spectrophotometer (Winspec) based on the first ten absorbance measurements made at 5-s intervals.
Substrates were dissolved at a concentration of 0.001-1 mM in KH2PO4-buffer, 50 mM, pH 7.5 using a 10 mM stock solution. Duplicate absorption-measurements of 20 different dilutions were performed at 25° C. The molar absorption coefficients were calculated by linear regression.
(§2) Oxygen consumption during the enzyme reaction was measured with an oxygen-electrode-cell (Digital Oxygen System Model 10, Rank Brothers Ltd., Cambridge, England) as described previously (Beechey, R. B. and Ribbons, D. W. (1971). ‘Methods in Microbiology’.V. 6B. Edited by J. R. Norris and D. W. Ribbons. Academic press, London. ‘Oxygen electrode measurements’ (Chapter II) pp. 29-52.). The reaction mixture contained air-saturated KH2PO4-buffer, 50 mM, pH 7.5 at 25° C. (thermostat). The oxygen-electrode was calibrated by the sodium-sulfite-method. Varying concentrations of substrate (0.01-0.3 mM) were added and the resulting decrease of oxygen was determined.
Assuming the Michaelis-Menten-equation, Vmax and Ks values were calculated by non-linear curve-fit by the program microcal-origin. KO2 was estimated by polarographic methods, adding non limiting amounts of substrate (0.5-1 mM) and graphically determining the oxygen concentration at the point of half of the maximum activity. Ks-values were similarly confirmed by polarographic methods, by stepwise addition of substrate to a final concentration of 20-150 μM.

[4] = target: wild-type 1,3-dicarbonyl-dioxygenase (Acinetobacter johnsonii, UniProt Q8GNT2); assay: Relative activity of wild-type enzyme at non-limiting substrate concentrations; format: biochemical; conditions: relative activity, acetylacetone = 1.00, non-limiting substrate concentrations
Description: as §1, §2

[5] = target: T1, 1,3-dicarbonyl-dioxygenase; assay: Reaction analysis with purified enzyme by in situ 1H-NMR / HPLC; format: biochemical; conditions: no cofactor added
[6] = target: T2, recombinant 1,3-dicarbonyl-dioxygenase (expressed in E.coli) (Acinetobacter johnsonii, UniProt Q8GNT2); assay: Relative activity of recombinant protein at non-limiting substrate concentrations; format: biochemical; conditions: relative activity, acetylacetone = 1.00, non-limiting substrate concentrations
T2 construct: made in house; host or cells: E. coli XL1 Blue, plasmid pMS470 (tac promoter, NdeI/HindIII)
Description: Expression constructs were expressed in E.coli XL1 Blue (Stratagene, La Jolla, Calif.), which was grown to an OD of 1 at 30° C. on rotatory shakers in erlenmeyer flasks, then induced with IPTG (0.3 mM) and incubated for another 5 hours.
as §1, §2

tRNA = conditions: cited from earlier work
Salmonella typhimurium = conditions: cited from earlier work
[7] = target: T1, 1,3-dicarbonyl-dioxygenase; assay: Determination of enzyme-activity and stability versus pH and additives; format: physicochemical
Description: Activity measurements were performed with the oxygen-electrode, with KH2PO4-buffers adjusted to various pH-values [5.0-9.0]. For stability measurements, the enzyme was diluted ten-fold and incubated at various pH-values [5.0-9.0]. The activity was measured periodically with the UV-activity-assay.

CC(=O)C1CCCCC1=O = assay: purified protein, by the assay type; conditions: other: apparent; photometric, oxygen-saturated buffer, substrate 10-200 μM; pH 7.5; 25.0 °C
CCCCCC(=O)CC(C)=O = assay: purified protein, by the assay type; conditions: other: apparent; photometric, oxygen-saturated buffer, substrate 10-200 μM; pH 7.5; 25.0 °C
CCCCC(=O)CC(C)=O = assay: purified protein, by the assay type; conditions: other: apparent; photometric, oxygen-saturated buffer, substrate 10-200 μM; pH 7.5; 25.0 °C
CC(=O)C(C)C(C)=O = assay: purified protein, by the assay type; conditions: other: apparent; photometric, oxygen-saturated buffer, substrate 10-200 μM; pH 7.5; 25.0 °C
CC(=O)C1CCCC1=O = assay: purified protein, by the assay type; conditions: other: apparent; photometric, oxygen-saturated buffer, substrate 10-200 μM; pH 7.5; 25.0 °C
CC(=O)CC(=O)C(C)(C)C = assay: purified protein, by the assay type; conditions: other: apparent; photometric, oxygen-saturated buffer, substrate 10-200 μM; pH 7.5; 25.0 °C
[8] = repeated exposure, peroral and inhalation routes

## CC(=O)CC(C)=O [Acetylacetone, pentane-2,4-dione]
[1]; in vivo
  fetotoxicity: fetotoxicity was observed
[1]; [8]
  immune system toxicity: possible immune system toxicity
  neurotoxicity: central neurotoxicity
[2]; remaining substrate calculated
  Substrate % (remaining): 0%
[2]; oxygen saturated buffer
  Acetate %: 50%
  Methylglyoxal %: 50%
[3]; activity-pH-relationship studies
  pH up to which the substrate is accepted by the enzyme: ≤ 9
[3]; apparent, relative to acetylacetone = 1.00, purified wild-type enzyme
  Vmaxrel.: 1.00
[3]; apparent, polarographic, estimated from rate of oxygen depletion, substrate 0.5-1 mM
  KO2: 38 ± 6 µM
[4]
  Vmax wild-type: 1.00
[5]
  acetate found per mmol of acetyl-acetone cleaved: one
[6]
  Vmax clone: 1.00

## CC(=O)CC(=O)C(F)(F)F [1,1,1-trifluoroacetylacetone]
tRNA
  inhibition of binding to tRNA of aflatoxin B1: inhibited

## CC(=O)CC(=O)c1ccccc1 [benzoylacetone]
tRNA
  inhibition of binding to tRNA of benzo[a]pyrene: inhibited
Salmonella typhimurium
  inhibition of mutagenicity of 2-naphthohydroxamic acid: inhibit

## O[C@H](CS)[C@H](O)CS (racemic) [dithiothreitol]
[7]
  effect of potential stabilizing agent on enzyme stability: did not enhance stability

## bovine serum albumin: potential stabilizing agent added to the enzyme
[7]; glycerol 10%, glucose 12.5%, ascorbate 1 mM, bovine serum albumin 1-20 mg/mL, dithiothreitol 1 mM, mercaptoethanol 1 mM
  effect of potential stabilizing agent on enzyme stability: did not enhance stability

## O=C(CC(=O)c1ccccc1)c1ccccc1 [dibenzoylmethane]
tRNA
  inhibition of binding to tRNA of aflatoxin B1: inhibited
  inhibition of binding to tRNA of benzo[a]pyrene: inhibited
Salmonella typhimurium
  inhibition of mutagenicity of 2-naphthohydroxamic acid: inhibit
  inhibition of mutagenicity of aflatoxin B1: inhibit
  inhibition of mutagenicity of benzo[a]pyrene: inhibit
  inhibition of mutagenicity of methylnitrosourea: inhibit

## 1,3-dicarbonyl-dioxygenase (Acinetobacter johnsonii)
CC(=O)C1CCCCC1=O
  Km: 18.1 ± 4.2 µM
CCCCCC(=O)CC(C)=O
  Km: 7.5 ± 2.1 µM
CCCCC(=O)CC(C)=O
  Km: 5.9 ± 1.5 µM
CC(=O)C(C)C(C)=O
  Km: 23.1 ± 6.8 µM
CC(=O)C1CCCC1=O
  Km: 21.0 ± 6.1 µM
CC(=O)CC(=O)C(C)(C)C
  Km: 14.2 ± 3.7 µM

## OCCS [mercaptoethanol]
[7]
  effect of potential stabilizing agent on enzyme stability: did not enhance stability

## O=C1CC(=O)c2ccccc21 [1,3-indandione]
tRNA
  inhibition of binding to tRNA of aflatoxin B1: inhibited
Salmonella typhimurium
  inhibition of mutagenicity of aflatoxin B1: inhibit
  inhibition of mutagenicity of benzo[a]pyrene: inhibit
Salmonella typhimurium; concomitant exposure to inhibitor and mutagen necessary
  inhibition of mutagenicity of methylnitrosourea: inhibit

B1: 1,3-dicarbonyl-dioxygenase: Purified A. johnsonii enzyme, about 67 kDa, subunits of about 16.6 kDa (SEQ ID NO: 2), cleaves 1,3-dicarbonyl compounds with molecular oxygen (protein)
chain: MDYCNKKHTAEEYVKISDNNYVPFPEAFSDGGITWQLLHSSPETSSWTAIFNCPAGSSFASHIHAGPGEYFLTKGKMEVRGGEQEGGSTAYAPSYGFESSGALHGKTFFPVESQFYMTFLGPLNFIDDNGKVIASIGWAEAQGAWLATKNEAA
[7]; 0.05 mg/mL protein concentration, 4° C.
  halftime-stability: 3550 min
[7]; enzyme incubated at pH 5.0-9.0
  pH of maximum stability: 7.5-8.0
[7]; oxygen electrode, KH2PO4-buffers pH 5.0-9.0
  pH of maximum activity: 6.0-7.5
[3]; acetylacetone as substrate
  apparent Vmax of the purified enzyme: 10.5 U/mgEnzyme
